Activity calls are given as the source filed them. The rule behind the calls is not given here.
Experiments:
Jurkat [1] = assay: Antiproliferative activity against human Jurkat cells after 48 hrs by celltiter glo assay
Jurkat [2] = assay: Antiproliferative activity against human Jurkat cells after 24 hrs by celltiter glo assay
[3] = molecular target: Mast/stem cell growth factor receptor Kit (Homo sapiens, UniProt P10721); assay: Inhibition of human recombinant c-kit kinase in cell free system after 30 mins
[4] = molecular target: Vascular endothelial growth factor receptor 1 (Homo sapiens, UniProt P17948); assay: Inhibition of human recombinant VEGFR1 expressed in Sf9 cells after 10 mins
[5] = molecular target: Vascular endothelial growth factor receptor 2 (Homo sapiens, UniProt P35968); assay: Inhibition of human recombinant VEGFR2 expressed in Sf9 cells after 60 mins
[6] = molecular target: Platelet-derived growth factor receptor beta (Homo sapiens, UniProt P09619); assay: Inhibition of human recombinant PDGFRbeta expressed in insect cells after 30 mins
[7] = molecular target: Vascular endothelial growth factor receptor 3 (Homo sapiens, UniProt P35916); assay: Inhibition of human recombinant VEGFR3 in cell free system after 90 mins
[8] = molecular target: Glycogen synthase kinase-3 alpha (Homo sapiens, UniProt P49840); assay: Inhibition of human recombinant GSK3alpha in cell free system after 60 mins
HUVEC [9] = assay: Antiangiogenic activity against HUVEC co-cultured with vascular smooth muscle cells assessed as inhibition of organotypic capillary network formation at 11 uM after 72 hrs; type: functional, cell-based; conditions: Homo sapiens
[10] = molecular target: Dual specificity mitogen-activated protein kinase kinase 1 (Homo sapiens, UniProt Q02750); assay: Inhibition of human recombinant MEK1 expressed in insect cells after 20 mins
HUVEC [11] = assay: Antiangiogenic activity against HUVEC co-cultured with vascular smooth muscle cells assessed as inhibition of tube formation at 11 uM after 72 hrs; type: functional, cell-based; conditions: Homo sapiens
[12] = molecular target: Mitogen-activated protein kinase 3 (Homo sapiens, UniProt P27361); assay: Inhibition of human recombinant ERK1 expressed in E.coli after 30 mins
[13] = molecular target: Platelet-derived growth factor receptor alpha (Homo sapiens, UniProt P16234); assay: Inhibition of human recombinant PDGFRalpha in cell free system after 60 mins
[14] = molecular target: Mitogen-activated protein kinase 1 (Homo sapiens, UniProt P28482); assay: Inhibition of human recombinant ERK2 expressed in E.coli after 15 mins
[15] = molecular target: T1, Receptor-type tyrosine-protein kinase FLT3 (Homo sapiens, UniProt P36888); assay: Inhibition of human recombinant FLT-3 kinase expressed in insect cells after 90 mins
T1 sequence (P36888 whole entry): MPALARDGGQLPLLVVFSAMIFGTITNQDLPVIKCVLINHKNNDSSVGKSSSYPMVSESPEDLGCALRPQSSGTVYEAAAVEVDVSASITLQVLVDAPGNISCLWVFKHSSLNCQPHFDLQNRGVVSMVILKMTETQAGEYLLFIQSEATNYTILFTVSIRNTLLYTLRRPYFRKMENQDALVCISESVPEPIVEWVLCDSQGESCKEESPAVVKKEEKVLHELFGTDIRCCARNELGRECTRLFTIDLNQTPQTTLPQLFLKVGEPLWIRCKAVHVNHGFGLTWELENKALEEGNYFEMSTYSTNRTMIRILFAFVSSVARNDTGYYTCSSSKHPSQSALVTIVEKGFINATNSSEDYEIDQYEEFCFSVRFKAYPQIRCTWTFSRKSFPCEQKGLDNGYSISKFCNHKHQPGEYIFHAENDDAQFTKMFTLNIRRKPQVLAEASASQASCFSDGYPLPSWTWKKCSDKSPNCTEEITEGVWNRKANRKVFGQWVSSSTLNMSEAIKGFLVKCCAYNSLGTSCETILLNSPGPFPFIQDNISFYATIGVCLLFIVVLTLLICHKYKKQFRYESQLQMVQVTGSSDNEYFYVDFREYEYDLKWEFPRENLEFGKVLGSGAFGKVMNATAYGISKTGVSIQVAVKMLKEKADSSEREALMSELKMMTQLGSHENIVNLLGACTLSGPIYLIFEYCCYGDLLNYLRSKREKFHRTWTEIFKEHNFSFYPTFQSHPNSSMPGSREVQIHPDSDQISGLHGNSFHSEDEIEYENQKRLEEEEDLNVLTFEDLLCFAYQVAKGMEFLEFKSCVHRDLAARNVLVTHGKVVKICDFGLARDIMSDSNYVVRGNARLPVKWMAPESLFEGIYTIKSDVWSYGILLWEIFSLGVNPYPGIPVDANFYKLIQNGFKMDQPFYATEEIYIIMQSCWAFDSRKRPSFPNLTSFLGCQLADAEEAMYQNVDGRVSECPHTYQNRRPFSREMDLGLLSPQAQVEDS

[16] = molecular target: Glycogen synthase kinase-3 beta (Homo sapiens, UniProt P49841); assay: Inhibition of human recombinant GSK3-beta in cell free system after 90 mins
HUVEC [17] = assay: Antiangiogenic activity against HUVEC co-cultured with vascular smooth muscle cells assessed as inhibition of tube formation upto 100 uM after 72 hrs; type: functional, cell-based; conditions: Homo sapiens
HUVEC [18] = assay: Antiangiogenic activity against HUVEC co-cultured with vascular smooth muscle cells assessed as inhibition of organotypic capillary network formation upto 100 uM after 72 hrs; type: functional, cell-based; conditions: Homo sapiens
[19] = molecular target: Mitogen-activated protein kinase 7 (Homo sapiens, UniProt Q13164); assay: Inhibition of human recombinant ERK5 in cell free system after 90 mins
HUVEC [20] = assay: Antiangiogenic activity against HUVEC co-cultured with vascular smooth muscle cells assessed as inhibition of organotypic capillary network formation at 33 uM after 72 hrs; type: functional, cell-based; conditions: Homo sapiens
HUVEC [21] = assay: Antiangiogenic activity against HUVEC co-cultured with vascular smooth muscle cells assessed as inhibition of tube formation at 33 uM after 72 hrs; type: functional, cell-based; conditions: Homo sapiens

Chain of Dual specificity mitogen-activated protein kinase kinase 1 (Q02750 whole entry): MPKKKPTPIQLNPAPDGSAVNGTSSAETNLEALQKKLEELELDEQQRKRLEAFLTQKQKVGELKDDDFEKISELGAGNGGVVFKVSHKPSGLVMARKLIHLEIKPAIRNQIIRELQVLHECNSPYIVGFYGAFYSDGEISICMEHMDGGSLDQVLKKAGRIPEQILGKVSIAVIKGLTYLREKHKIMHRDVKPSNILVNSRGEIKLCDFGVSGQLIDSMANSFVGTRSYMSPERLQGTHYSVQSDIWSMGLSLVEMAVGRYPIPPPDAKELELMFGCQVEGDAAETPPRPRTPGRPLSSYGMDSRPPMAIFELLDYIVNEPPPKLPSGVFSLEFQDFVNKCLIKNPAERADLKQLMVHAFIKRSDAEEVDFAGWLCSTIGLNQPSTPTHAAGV
Chain of Vascular endothelial growth factor receptor 2 (P35968 whole entry): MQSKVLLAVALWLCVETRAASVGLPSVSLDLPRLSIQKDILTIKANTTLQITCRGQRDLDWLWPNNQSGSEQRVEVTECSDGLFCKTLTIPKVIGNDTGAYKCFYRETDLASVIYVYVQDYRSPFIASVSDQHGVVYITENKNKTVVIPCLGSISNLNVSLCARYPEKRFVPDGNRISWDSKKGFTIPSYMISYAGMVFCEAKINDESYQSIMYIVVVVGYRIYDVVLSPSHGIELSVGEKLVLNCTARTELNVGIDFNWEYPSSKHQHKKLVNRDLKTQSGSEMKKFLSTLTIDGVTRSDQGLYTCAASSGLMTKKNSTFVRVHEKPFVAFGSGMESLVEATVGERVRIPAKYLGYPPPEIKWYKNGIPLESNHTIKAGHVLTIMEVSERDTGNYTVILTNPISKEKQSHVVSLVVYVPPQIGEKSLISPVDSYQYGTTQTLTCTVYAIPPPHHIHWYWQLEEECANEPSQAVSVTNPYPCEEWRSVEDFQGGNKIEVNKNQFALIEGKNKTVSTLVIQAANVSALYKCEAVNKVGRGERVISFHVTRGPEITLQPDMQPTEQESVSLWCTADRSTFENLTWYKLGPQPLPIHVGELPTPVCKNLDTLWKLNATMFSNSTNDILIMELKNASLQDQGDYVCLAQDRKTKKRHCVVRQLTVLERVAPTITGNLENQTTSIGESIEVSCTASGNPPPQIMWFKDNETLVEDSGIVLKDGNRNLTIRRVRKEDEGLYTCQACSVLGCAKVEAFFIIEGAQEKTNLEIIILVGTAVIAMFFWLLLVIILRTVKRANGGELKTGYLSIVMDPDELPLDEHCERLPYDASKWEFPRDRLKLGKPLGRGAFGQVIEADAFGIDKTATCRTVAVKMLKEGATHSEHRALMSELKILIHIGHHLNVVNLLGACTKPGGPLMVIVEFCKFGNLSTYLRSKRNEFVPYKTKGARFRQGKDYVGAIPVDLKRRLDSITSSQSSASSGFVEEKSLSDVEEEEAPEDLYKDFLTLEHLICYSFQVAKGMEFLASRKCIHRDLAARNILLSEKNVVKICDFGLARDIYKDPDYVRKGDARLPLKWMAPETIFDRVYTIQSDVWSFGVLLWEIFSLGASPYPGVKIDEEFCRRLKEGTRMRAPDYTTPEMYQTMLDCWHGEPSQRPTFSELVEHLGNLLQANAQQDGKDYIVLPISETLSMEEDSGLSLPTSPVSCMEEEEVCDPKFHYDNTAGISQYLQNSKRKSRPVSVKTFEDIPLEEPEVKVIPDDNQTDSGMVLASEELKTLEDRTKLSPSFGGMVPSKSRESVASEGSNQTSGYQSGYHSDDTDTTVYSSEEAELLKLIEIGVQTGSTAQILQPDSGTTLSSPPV
Chain of Mitogen-activated protein kinase 3 (P27361 whole entry): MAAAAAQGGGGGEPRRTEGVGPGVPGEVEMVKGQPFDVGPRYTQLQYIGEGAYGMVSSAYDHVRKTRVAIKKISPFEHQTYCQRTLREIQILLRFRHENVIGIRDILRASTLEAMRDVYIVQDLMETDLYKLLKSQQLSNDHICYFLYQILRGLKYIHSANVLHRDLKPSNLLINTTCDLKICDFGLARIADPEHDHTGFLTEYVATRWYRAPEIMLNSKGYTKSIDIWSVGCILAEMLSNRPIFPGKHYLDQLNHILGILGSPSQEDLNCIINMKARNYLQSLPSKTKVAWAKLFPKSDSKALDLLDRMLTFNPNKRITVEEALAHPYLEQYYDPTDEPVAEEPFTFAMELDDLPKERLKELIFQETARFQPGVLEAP
Chain of Mitogen-activated protein kinase 1 (P28482 whole entry): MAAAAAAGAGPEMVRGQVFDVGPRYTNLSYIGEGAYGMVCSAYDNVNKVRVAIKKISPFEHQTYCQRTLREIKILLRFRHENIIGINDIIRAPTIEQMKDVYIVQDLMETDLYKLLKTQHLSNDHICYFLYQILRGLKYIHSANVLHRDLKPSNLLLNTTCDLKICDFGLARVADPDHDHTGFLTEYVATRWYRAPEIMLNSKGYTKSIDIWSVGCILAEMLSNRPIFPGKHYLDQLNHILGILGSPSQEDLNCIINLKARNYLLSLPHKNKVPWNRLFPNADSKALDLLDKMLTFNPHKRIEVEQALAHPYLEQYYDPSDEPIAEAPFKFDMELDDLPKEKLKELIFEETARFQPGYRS
Chain of Glycogen synthase kinase-3 alpha (P49840 whole entry): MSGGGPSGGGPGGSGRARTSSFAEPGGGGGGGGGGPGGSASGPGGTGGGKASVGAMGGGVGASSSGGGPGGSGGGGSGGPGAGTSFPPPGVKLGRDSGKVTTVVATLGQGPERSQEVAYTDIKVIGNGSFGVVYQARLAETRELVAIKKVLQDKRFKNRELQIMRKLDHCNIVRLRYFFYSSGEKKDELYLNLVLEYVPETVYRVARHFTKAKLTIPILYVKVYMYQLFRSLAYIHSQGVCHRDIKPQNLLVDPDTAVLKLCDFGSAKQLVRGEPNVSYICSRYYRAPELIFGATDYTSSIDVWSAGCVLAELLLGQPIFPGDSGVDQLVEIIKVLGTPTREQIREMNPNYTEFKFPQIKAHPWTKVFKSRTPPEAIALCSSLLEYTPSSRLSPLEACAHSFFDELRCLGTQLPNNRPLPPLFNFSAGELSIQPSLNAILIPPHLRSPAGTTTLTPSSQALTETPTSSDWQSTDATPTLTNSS
Chain of Vascular endothelial growth factor receptor 3 (P35916 whole entry): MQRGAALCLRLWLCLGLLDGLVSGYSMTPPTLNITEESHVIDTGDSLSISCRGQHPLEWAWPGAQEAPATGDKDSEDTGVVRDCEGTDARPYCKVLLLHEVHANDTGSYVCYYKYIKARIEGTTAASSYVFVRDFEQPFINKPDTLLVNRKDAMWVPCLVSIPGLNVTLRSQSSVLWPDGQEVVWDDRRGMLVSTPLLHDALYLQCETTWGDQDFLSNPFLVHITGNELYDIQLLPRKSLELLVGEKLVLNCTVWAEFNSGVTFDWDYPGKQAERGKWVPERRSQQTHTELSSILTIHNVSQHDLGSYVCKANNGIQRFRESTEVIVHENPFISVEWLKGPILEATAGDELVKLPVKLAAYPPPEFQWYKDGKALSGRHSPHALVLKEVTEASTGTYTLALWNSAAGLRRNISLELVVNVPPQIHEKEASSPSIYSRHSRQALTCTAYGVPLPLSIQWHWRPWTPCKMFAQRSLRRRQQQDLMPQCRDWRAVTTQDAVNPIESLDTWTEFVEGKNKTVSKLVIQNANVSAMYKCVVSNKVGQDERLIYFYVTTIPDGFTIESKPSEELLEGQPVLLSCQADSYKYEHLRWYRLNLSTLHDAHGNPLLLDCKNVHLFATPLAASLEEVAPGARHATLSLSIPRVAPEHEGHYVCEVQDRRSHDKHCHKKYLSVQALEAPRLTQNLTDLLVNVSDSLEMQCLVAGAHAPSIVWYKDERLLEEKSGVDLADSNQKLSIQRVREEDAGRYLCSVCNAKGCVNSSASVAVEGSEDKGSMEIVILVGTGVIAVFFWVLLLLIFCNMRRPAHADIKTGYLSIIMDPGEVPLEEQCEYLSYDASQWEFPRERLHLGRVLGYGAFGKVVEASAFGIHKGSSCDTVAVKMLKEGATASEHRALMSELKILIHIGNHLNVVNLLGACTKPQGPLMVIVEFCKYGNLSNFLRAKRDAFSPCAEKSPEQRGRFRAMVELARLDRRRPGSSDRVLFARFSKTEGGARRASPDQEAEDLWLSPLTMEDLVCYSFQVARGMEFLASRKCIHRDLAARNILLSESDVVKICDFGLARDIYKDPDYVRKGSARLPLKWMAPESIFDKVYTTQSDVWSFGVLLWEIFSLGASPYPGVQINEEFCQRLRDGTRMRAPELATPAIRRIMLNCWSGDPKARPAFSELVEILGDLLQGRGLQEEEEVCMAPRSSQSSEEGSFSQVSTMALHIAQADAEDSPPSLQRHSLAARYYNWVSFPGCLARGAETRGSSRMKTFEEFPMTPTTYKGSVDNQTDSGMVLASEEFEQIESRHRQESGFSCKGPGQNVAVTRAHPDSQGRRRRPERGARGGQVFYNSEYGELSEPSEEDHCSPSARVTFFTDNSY
Chain of Glycogen synthase kinase-3 beta (P49841 whole entry): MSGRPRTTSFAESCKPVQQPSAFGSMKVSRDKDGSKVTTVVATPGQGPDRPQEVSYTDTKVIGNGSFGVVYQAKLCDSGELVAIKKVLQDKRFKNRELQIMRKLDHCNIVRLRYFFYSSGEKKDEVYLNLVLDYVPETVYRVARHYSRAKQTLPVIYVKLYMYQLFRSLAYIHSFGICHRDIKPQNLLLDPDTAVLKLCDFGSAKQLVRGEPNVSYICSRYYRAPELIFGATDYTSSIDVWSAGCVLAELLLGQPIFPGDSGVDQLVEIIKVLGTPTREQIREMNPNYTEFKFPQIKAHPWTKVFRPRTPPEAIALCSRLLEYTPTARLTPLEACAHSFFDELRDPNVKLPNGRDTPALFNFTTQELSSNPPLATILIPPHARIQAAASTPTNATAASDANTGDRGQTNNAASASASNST

**Q.** `COc1cc(O)c2c(c1)CCCCCC(=O)C[C@H](Br)C[C@H](C)OC2=O` was tested. Which IC50 (Jurkat [1]) did it give?
**A.** 9.7 µM

**Q.** And the IC50 (Jurkat [2])?
**A.** 11.4 µM

**Q.** What about the IC50 [3] of the same compound?
**A.** 11 µM

**Q.** What about the IC50 [4] of the same compound?
**A.** > 100 µM

**Q.** And the IC50 [5]?
**A.** 4300 nM

**Q.** `COc1cc(O)c2c(c1)/C=C/CCCC(=O)C[C@H](Br)C[C@H](C)OC2=O` was tested. Which IC50 (Jurkat [1]) did it give?
**A.** 9.7 µM

**Q.** And the IC50 [6]?
**A.** > 100 µM

**Q.** And the IC50 (Jurkat [2])?
**A.** 11.7 µM

**Q.** And the IC50 [3]?
**A.** 2.8 µM

**Q.** And the IC50 [5]?
**A.** > 100000 nM

**Q.** `COc1cc(O)c2c(c1)/C=C\CCCC(=O)C[C@H](Cl)C[C@H](C)OC2=O` was tested. Which IC50 (Jurkat [1]) did it give?
**A.** 8.8 µM

**Q.** And the IC50 (Jurkat [2])?
**A.** 9.5 µM

**Q.** What about the IC50 [7] of the same compound?
**A.** > 100000 nM

**Q.** What about the IC50 [3] of the same compound?
**A.** 100 µM

**Q.** What about the IC50 [5] of the same compound?
**A.** 82000 nM

**Q.** For `COc1cc(O)c2c(c1)CCCCCC(=O)/C=C/C[C@H](C)OC2=O`, which IC50 [8] is on record?
**A.** > 100 µM

**Q.** And the Activity (HUVEC [9])?
**A.** Active

**Q.** And the IC50 [10]?
**A.** 12 µM

**Q.** What about the Activity (HUVEC [11]) of the same compound?
**A.** Active

**Q.** And the IC50 (Jurkat [1])?
**A.** 9.7 µM

**Q.** What about the IC50 [12] of the same compound?
**A.** > 100 µM

**Q.** What about the IC50 [13] of the same compound?
**A.** 89 nM

**Q.** What about the IC50 (Jurkat [2]) of the same compound?
**A.** 13 µM

**Q.** And the IC50 [7]?
**A.** 720 nM

**Q.** What about the IC50 [3] of the same compound?
**A.** 1.3 µM

**Q.** What about the IC50 [14] of the same compound?
**A.** > 100 µM

**Q.** What about the IC50 [4] of the same compound?
**A.** 33 µM

**Q.** What about the IC50 [5] of the same compound?
**A.** 310 nM

**Q.** What about the IC50 [15] of the same compound?
**A.** 330 nM

**Q.** Which IC50 (Jurkat [1]) does the source give for `COc1cc(O)c2c(c1)/C=C\CCCC(=O)C[C@H](Br)C[C@H](C)OC2=O` here?
**A.** 7.5 µM

**Q.** And the IC50 (Jurkat [2])?
**A.** 6.1 µM

**Q.** And the IC50 [3]?
**A.** 81 µM

**Q.** What about the IC50 [5] of the same compound?
**A.** 24000 nM

**Q.** `COc1cc(O)c2c(c1)/C=C\CCCC(=O)/C=C/C[C@H](C)OC2=O` was tested. Which IC50 [10] did it give?
**A.** > 100 µM

**Q.** And the IC50 (Jurkat [1])?
**A.** 15.4 µM

**Q.** What about the IC50 [6] of the same compound?
**A.** > 100 µM

**Q.** And the IC50 [13]?
**A.** 450 nM

**Q.** What about the IC50 (Jurkat [2]) of the same compound?
**A.** 19.5 µM

**Q.** And the IC50 [7]?
**A.** 1600 nM

**Q.** What about the IC50 [3] of the same compound?
**A.** 1.4 µM

**Q.** And the IC50 [4]?
**A.** 15 µM

**Q.** And the IC50 [5]?
**A.** 2300 nM

**Q.** And the IC50 [15]?
**A.** 590 nM

**Q.** With `COc1cc(O)c2c(c1)/C=C/CCCC(=O)/C=C/C[C@H](C)OC2=O` as the compound, how does the IC50 [8] read?
**A.** > 100 µM

**Q.** And the IC50 [10]?
**A.** 22 µM

**Q.** What about the IC50 (Jurkat [1]) of the same compound?
**A.** 8.9 µM

**Q.** And the IC50 [16]?
**A.** > 100 µM

**Q.** What about the IC50 [12] of the same compound?
**A.** > 100 µM

**Q.** What about the IC50 [6] of the same compound?
**A.** 9.2 µM

**Q.** What about the IC50 [13] of the same compound?
**A.** 27 nM

**Q.** What about the IC50 (Jurkat [2]) of the same compound?
**A.** 11 µM

**Q.** And the IC50 [7]?
**A.** 1400 nM

**Q.** What about the IC50 [3] of the same compound?
**A.** 1.3 µM

**Q.** What about the IC50 [14] of the same compound?
**A.** > 100 µM

**Q.** What about the IC50 [4] of the same compound?
**A.** 51 µM

**Q.** What about the IC50 [5] of the same compound?
**A.** 1000 nM

**Q.** What about the IC50 [15] of the same compound?
**A.** 330 nM

**Q.** What does the source list for `COc1cc(O)c2c(c1)/C=C/CCCC(=O)C[C@H](Cl)C[C@H](C)OC2=O`?
**A.** IC50 (Jurkat [1]): 9.2 µM; IC50 (Jurkat [2]): 10.9 µM; IC50 [7]: > 100000 nM; IC50 [3]: > 100 µM

**Q.** `COc1cc(O)c2c(c1)CCCCCC(=O)CCC[C@H](C)OC2=O` was tested. Which Activity (HUVEC [17]) did it give?
**A.** inactive

**Q.** And the Activity (HUVEC [18])?
**A.** inactive

**Q.** With `COc1cc(O)c2c(c1)/C=C/C[C@@H](O)[C@H](O)C(=O)/C=C\C[C@H](C)OC2=O` as the compound, how does the IC50 [8] read?
**A.** 1.9 µM

**Q.** And the IC50 [10]?
**A.** 0.002 µM

**Q.** And the IC50 (Jurkat [1])?
**A.** 5.5 µM

**Q.** What about the IC50 [16] of the same compound?
**A.** 18 µM

**Q.** And the IC50 [19]?
**A.** > 100 µM

**Q.** What about the IC50 [12] of the same compound?
**A.** 1.4 µM

**Q.** And the IC50 [13]?
**A.** 0.24 nM

**Q.** And the IC50 (Jurkat [2])?
**A.** 7 µM

**Q.** And the IC50 [7]?
**A.** 0.5 nM

**Q.** What about the IC50 [3] of the same compound?
**A.** 0.0096 µM

**Q.** And the IC50 [14]?
**A.** 1.3 µM

**Q.** And the IC50 [4]?
**A.** 0.012 µM

**Q.** What about the IC50 [5] of the same compound?
**A.** 0.49 nM

**Q.** What about the IC50 [15] of the same compound?
**A.** 4.9 nM

**Q.** Which results are given for `COc1cc(O)c2c(c1)CCCCCC(=O)C[C@H](Cl)C[C@H](C)OC2=O`?
**A.** IC50 (Jurkat [1]): 8.4 µM; IC50 (Jurkat [2]): 10.6 µM; IC50 [3]: 47 µM; IC50 [5]: 93000 nM

**Q.** How did the Activity (HUVEC [20]) turn out when `COc1cc(O)c2c(c1)/C=C/CCCC(O)C[C@H](Cl)C[C@H](C)OC2=O` (some centres not stated) was run?
**A.** Active

**Q.** And the Activity (HUVEC [21])?
**A.** Active

**Q.** For `COc1cc(O)c2c(c1)CCCCCC(=O)/C=C\C[C@H](C)OC2=O`, which IC50 [10] is on record?
**A.** 17 µM

**Q.** What about the IC50 (Jurkat [1]) of the same compound?
**A.** 11 µM

**Q.** What about the IC50 [13] of the same compound?
**A.** 440 nM

**Q.** And the IC50 (Jurkat [2])?
**A.** 26 µM

**Q.** And the IC50 [7]?
**A.** 1200 nM

**Q.** And the IC50 [3]?
**A.** 4.1 µM

**Q.** What about the IC50 [4] of the same compound?
**A.** > 100 µM

**Q.** And the IC50 [5]?
**A.** 540 nM

**Q.** And the IC50 [15]?
**A.** 850 nM

— ChEMBL document CHEMBL1667852, “Isosteric replacement of the Z-enone with haloethyl ketone and E-enone in a resorcylic acid lactone series and biological evaluation” (Bioorg Med Chem Lett, 2011)
